Where a name gives a salt, the structure may show the parent alone.
Tests used:
GLK−IQGAP1 complex = target: T1, GLK−IQGAP1 complex (Mus musculus, UniProt Q99JP0); experiment: In situ PLA in lung tissues of mice of the LLC/luc metastatic lung cancer model; type: in vivo
T1 construct: from tissue; host or cells: mouse lung tissue (LLC/luc metastatic lung cancer model)
Text: (A) The molecular docking of GLK kinase domain structure with C1 (verteporfin). A three-dimensional structure model depicts the binding of C1 to the predicted GLK kinase domain containing phosphorylated Ser-170. The putative binding affinity was −7.4 kcal/mol. (B) The molecular docking of GLK kinase domain structure with C2 (alexidine dihydrochloride). A three-dimensional structure model depicts the binding of C2 to the predicted GLK kinase domain containing phosphorylated Ser-170. The putative binding affinity was −7.0 kcal/mol. (C) Co-immunoprecipitation (co-IP) of Flag-tagged GLK and GFP-fusion GLK using lysates of HEK293T cells co-transfected with Flag-GLK and GFP-GLK plasmids. Cells were treated with C1 (verteporfin) or C2 (alexidine dihydrochloride). (D) Administration of the GLK inhibitor C1 (0.556 nmole/g) or C2 (0.085 nmole/g) every 3 days for 30 days in the LLC/luc metastatic lung cancer mouse model. (E) The luciferase activity in mice treated with C1 (verteporfin), C2 (alexidine dihydrochloride), or vehicle was detected by IVIS Spectrum. (F) Luminescent intensity of photons emitted from LLC/luc cells in the images in (e) was quantified. (G) Representative immunohistochemistry of H&E in lung tissues from mice treated with C1 (verteporfin), C2, or vehicle. Scale bar, 0.5 cm. (H) In situ PLA assays of the interaction between GLK and IQGAP1 (upper panel) or phosphorylated IQGAP1 Ser-480 (lower panel) in lung tissues from mice treated with C1 (verteporfin), C2 (alexidine dihydrochloride), or vehicle in the LLC/luc metastatic lung cancer mouse model. Original magnification, ×40.
For experiments using human pulmonary tissues, tissue sections were deparafinized, antigen retrieved, and nonspecific-binding blocked, followed by in situ PLA assays using primary antibodies for IQGAP1 (1:4,000, CUSABIO) plus either GLK (1:3,000, mAb clone C3) or phospho-IQGAP1 Ser-480 (1:2,000, Allbio Science). The monoclonal antibody for phosphorylated IQGAP1 Ser-480 was generated by immunization of a mouse with phospho-peptides (human IQGAP1 epitope: ^473NTVWKQL[pS] SSVTGLT^487; SEQ ID NO: 32). The tissue sections were then incubated with species-specific secondary antibodies conjugated with oligonucleotides ([…]), followed by ligation and amplification reactions. The number of PLA signals for GLK−IQGAP1 complex or phosphorylated IQGAP1 per tissue (3.14 mm^2) was counted.

GLK kinase domain = target: T2, GLK kinase domain (Homo sapiens, UniProt Q8IVH8); experiment: In vitro GLK kinase assay (ADP-GLO) with kinase-dead PKCθ (K409W) as substrate; type: biochemical; details: screening of 101,200 compounds
T2 construct: recombinant proteins of the GLK kinase-domain (1 μg) were incubated with recombinant proteins of kinase-dead PKCθ
T2 sequence (Q8IVH8 16-273 limits assumed): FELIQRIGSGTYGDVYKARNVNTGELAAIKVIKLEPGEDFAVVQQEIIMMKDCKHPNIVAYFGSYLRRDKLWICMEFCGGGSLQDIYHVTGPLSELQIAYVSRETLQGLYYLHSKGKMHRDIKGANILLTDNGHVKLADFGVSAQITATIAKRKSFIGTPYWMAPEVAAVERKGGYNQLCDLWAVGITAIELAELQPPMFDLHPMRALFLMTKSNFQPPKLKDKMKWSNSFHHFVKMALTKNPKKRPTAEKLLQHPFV
Protocol: (A) Luciferase activity of NF-κB-driven reporter assays in stable GLK-transfected CHO-K1 cells that were treated with or without the GLK inhibitor C1 (verteporfin) under the indicated concentration. The fold changes are presented relative to the value of vector control. (B) Recombinant proteins of GLK kinase domain plus recombinant proteins of GST-tagged kinase-dead PKCθ (K409W) were subjected to in vitro kinase assays in the presence or absence of the GLK inhibitor C1 (verteporfin). Means±SD of are shown. *, P value<0.05; **, P value<0.01 (two-tailed Student's t-test). (C) The AhR-RORγt complex was inhibited by the GLK inhibitor. Confocal microscopy of proximity ligation assays (PLA) for the interaction between AhR and either RORγt or phospho-RORγt (S489) in peripheral blood T cells treated with C1 (verteporfin) (5 μM) for 30 min. The T cells were freshly isolated from 4 SLE patients and 1 RA patients. C1 denotes verteporfin; C2 denotes alexidine dihydrochloride. (D) Quantification of the PLA signals of (C). (E) FRET assays of HEK293T cells co-transfected with CFP-AhR, YFP-RORγt, and IKKβ plasmids.
GLK kinase activity was determined by measuring the rate of ADP production in the in vitro kinase reaction using ADP-GLO™ Kinase Assay kit. For the kinase reaction, recombinant proteins of the GLK kinase-domain (1 μg) were incubated with recombinant proteins of kinase-dead PKCθ (K409W; 0.15 μg) plus ATP (0.1 mM) or myelin basic protein (MBP) plus ATP (0.1 mM) in kinase buffer (40 mM Tris-HCl, pH7.5.20 mM MgCl2, 0.1 mg/ml BSA, 10 mM DTT and 0.1 mM Na3VO4) for 30 min at room temperature.
Cell-based high-throughput screening was conducted against a representative library of 100,000 molecules at ˜10 μM. CHO-GLK-Luc cells expressing GLK and NF-κB-luciferase reporter were used. The reaction volume was 5 μl (500 cells) per well in 1,536-well plates. There was no positive control. This high-throughput screening campaign was successful with a determined Z′ factor of 0.57˜0.60. […]

T1 sequence (Q99JP0 whole entry, one chain of several): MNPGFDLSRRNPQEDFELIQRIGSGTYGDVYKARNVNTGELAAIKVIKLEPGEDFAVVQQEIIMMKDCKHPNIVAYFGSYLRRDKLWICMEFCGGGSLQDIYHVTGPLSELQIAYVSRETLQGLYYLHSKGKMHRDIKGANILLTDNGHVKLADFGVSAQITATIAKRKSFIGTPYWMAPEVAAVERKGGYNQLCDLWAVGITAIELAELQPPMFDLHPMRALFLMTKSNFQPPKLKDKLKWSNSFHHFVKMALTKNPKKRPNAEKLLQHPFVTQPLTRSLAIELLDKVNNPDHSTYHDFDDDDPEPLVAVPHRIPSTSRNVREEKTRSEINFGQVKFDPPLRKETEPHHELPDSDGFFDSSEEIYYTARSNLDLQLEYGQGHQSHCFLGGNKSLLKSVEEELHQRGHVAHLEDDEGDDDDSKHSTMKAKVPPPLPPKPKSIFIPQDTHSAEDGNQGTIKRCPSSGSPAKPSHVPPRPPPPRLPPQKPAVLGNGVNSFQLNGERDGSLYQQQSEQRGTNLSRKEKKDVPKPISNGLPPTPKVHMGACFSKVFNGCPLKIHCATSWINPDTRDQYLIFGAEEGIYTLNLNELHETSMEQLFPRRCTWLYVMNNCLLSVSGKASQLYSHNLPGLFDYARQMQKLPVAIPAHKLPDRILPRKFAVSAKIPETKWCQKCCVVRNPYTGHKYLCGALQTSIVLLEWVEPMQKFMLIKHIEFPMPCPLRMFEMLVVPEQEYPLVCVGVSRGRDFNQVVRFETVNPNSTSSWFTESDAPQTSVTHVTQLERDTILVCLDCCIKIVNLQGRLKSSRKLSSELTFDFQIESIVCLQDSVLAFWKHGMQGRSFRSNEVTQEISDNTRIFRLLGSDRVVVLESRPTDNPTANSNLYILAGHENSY

| Compound | IQGAP1 (Ser-480) phosphorylation in the lung tissues (GLK−IQGAP1 complex) | interaction between GLK and IQGAP1 in the lung tissues (GLK−IQGAP1 complex) | GLK kinase activity in vitro (GLK kinase domain) | GLK kinase activity in vitro (GLK kinase domain; listed as verteporfin) |
| --- | --- | --- | --- | --- |
| C=Cc1c(C)c2cc3nc(cc4[nH]c(cc5nc(cc1[nH]2)C(C)=C5CCC(=O)O)c(CCC(=O)OC)c4C)[C@@]1(C)C3=CC=C(C(=O)OC)[C@H]1C(=O)OC [C1, verteporfin] | inhibited | inhibited | efficiently inhibited | most effective inhibitor |
| CCCCC(CC)CNC(=N)NC(=N)NCCCCCCNC(=N)NC(=N)NCC(CC)CCCC (stereo not shown) [C2, alexidine dihydrochloride] | inhibited | inhibited | efficiently inhibited | – |
